Laboratory results: patent US4710492A, “3'-azido-2',3'-dideoxy-5-halouridine and its use in treating patients infected with retroviruses” (Yale University, priority 1986, dated 1987)
Read-outs that look alike come from different tables or passages of the source.

How the values were obtained:
[1] = tested on: Moloney Murine Leukemia Virus; assay: Antiviral screening against Moloney Murine Leukemia Virus (MuLV) by XC-Assay; format: cell-based; details: read-out: ID50 (Moloney Murine Leukemia Virus)
Description: Biological Activity Assay Procedure for Antiviral Screening Against Moloney Murine Leukemia Virus (MuLV) by XC-Assay
The XC assay system is an indirect method for quantitation of murine-leukemia virus (MuLV) originally described by V. Klement et al, Proc. Natl. Acad. Sci., 63, 753, (1969) and modified by W. Rowe et al, Virology, 42, 1136, (1970). This test is based on the development of syncytial changes in the XC cell line when it is co-cultivated with mouse fibroblast cells (SC-1 cells) productively infected with MuLV. The XC cell line was derived from a rat tumor induced by the prague strain of Rouse Sarcoma Virus (RSV) (J. Svoboda et al, Folia Biol., 9, 77, (1963)).
1E5 SC-1 cells were seeded, in Earls Minimum Essential Medium (EMEM)-10% Fetal Bovine Serum (FBS), onto 60 mm petri dishes. The following day, the cells were inoculated with 0.5 ml of a virus dilution containing 25 μg/ml of DEAE-dextran. The dishes were maintained for 1 hour at 37° C. in a humidified 5% CO2 incubator. The virus inoculum was then removed and replaced with 5 ml of medium containing appropriate concentration of the test compound (two dishes/concentration). Medium containing 5% FBS was added to the virus control dishes. The medium (with or without the test compound) was changed at 48 hours.
Five days after virus inoculation, the culture fluid was decanted and the cells were irradiated with a GE germicidal bulb for 30 seconds (1500-1800 ergs UV-light). Cultures were immediately overlaid with 2E5 XC cells in 5 ml of EMEM-10% FBS/dish. The medium was changed at 2 day intervals. Four days after XC cell addition, cultures were simultaneously fixed and stained with GEIMSA for 10 to 15 minutes.
Plaques were counted using an inverted microscopy as holes in the cell sheet containing syncytial cells, or as focal masses of multinucleated giant cells.
Calculation of % Inhibition/Concentration: [formula] ID50: Accumulative % Inhibition using Reed-Muench Method

[2] = tested on: HTLV-III/LAV/AAV; assay: Antiviral activity against HTLV-III/LAV/AAV; format: cell-based; details: Human immunodeficiency virus 1; read-out: ID50 HTLV-III/LAV/AAV
[3] = tested on: HTLV III/LAV; details: in vitro; Mitsuya et al. 1985; cited from earlier work
[4] = SC1, XC-assay, SC-1 mouse fibroblast cells co-cultivated with XC cells, Reed-Muench Method

| Compound | IC50 [1, 4] [µM] | IC50 [2] [µM] | IC50 ([1]; SC1, Fibroblast) [µM] | HTLV III/LAV replication [3] | cytopathic effects of HTLV III/LAV [3] |
| --- | --- | --- | --- | --- | --- |
| [N-]=[N+]=N[C@H]1C[C@H](n2cc(I)c(=O)[nH]c2=O)O[C@@H]1CO [3'-N3 --IUdR, 3'-azido-2',3'-dideoxy-5-iodouridine] | 3 |  |  |  |  |
| [N-]=[N+]=N[C@H]1C[C@H](n2cc(Br)c(=O)[nH]c2=O)O[C@@H]1CO [3'-N3 --BUdR, 3'-azido-2',3'-dideoxy-5-bromouridine] | 1.5 | 2.3 |  |  |  |
| Cc1cn([C@H]2C[C@H](N=[N+]=[N-])[C@@H](CO)O2)c(=O)[nH]c1=O [3'-azido-3'-deoxythymidine] |  | 0.23 | 0.023 | inhibit HTLV III/LAV replication | block the cytopathic effects |
